Results from ChEMBL document CHEMBL1641408, “Two dimeric lignans with an unusual α,β-unsaturated ketone motif from Zanthoxylum podocarpum and their inhibitory effects on nitric oxide production” (Bioorg Med Chem Lett, 2011).

System: RAW264.7
Experiment: Antiinflammatory activity in mouse RAW264.7 cells assessed as inhibition of LPS-induced nitric oxide production after 18 hrs by Griess reagent method
Assay type: functional, cell-based
Conditions: RAW264.7, 18 h

| IC50 | SMILES |
| --- | --- |
| 12.2 µM | COc1cc([C@@H]2OC[C@@H]3[C@H]2CO[C@@H]3c2ccc(OC34OCOC3=CC(=O)[C@@H]([C@@H]3OC[C@H]5[C@@H]3CO[C@H]5c3ccc(OC)c(OC)c3)[C@@H]4O)c(OC)c2)ccc1O (some centres not stated) [ZANTHPODOCARPIN B] |
| 5.31 µM | COc1ccc([C@@H]2OC[C@@H]3[C@H]2CO[C@H]3[C@@H]2C(=O)C=C3OCOC3(Oc3ccc([C@H]4OC[C@@H]5[C@H]4CO[C@H]5c4ccc5c(c4)OCO5)cc3OC)[C@H]2O)cc1OC (some centres not stated) [ZANTHPODOCARPINS A] |
